{"source": "patent US20170173114A1", "about": "“METHODS AND COMPOSITIONS FOR INDUCTION OF UCP1 EXPRESSION” (Joslin Diabetes Center, Inc., priority 2014, published 2017)", "key": {"UCP1": {"tested_on": "UCP1", "test": "UCP1 mRNA expression (Q-RT-PCR) in WT-1 brown preadipocytes", "format": "cell-based, murine", "protocol": "(§1) Total RNA was isolated with QIAzol lysis reagent (Qiagen, Valencia, Calif.) and purified by RNeasy Mini columns (Qiagen) following the manufacture's instructions. cDNA was prepared from total RNA using the Advantage RT-PCR kit (BD Biosciences, Palo Alto, Calif.) according to manufacturer's instructions. Diluted cDNA was used in a PCR reaction with SYBR Green Master Mix (Applied Biosystems, Foster City, Calif.) and primers specifically designed for detection of the gene of interest. PCR reactions were run in duplicate for each sample and quantitated in the ABI Sequence Detection System (Applied Biosystems). Data were expressed as arbitrary units after normalization to levels of expression of internal controls for each sample. Sequences of primers for specific genes are each obtained from the published literature or designed using publically available gene sequence databases. Unless otherwise indicated, gene expression data described in the examples below was obtained using QPCR.\nThe effect of FGF6 on differentiation of WT-1 murine brown preadipocytes was also examined. WT-1 cells can be induced to undergo brown adipocyte differentiation, characterized by lipid accumulation and expression of adipogenic and brown fat markers, as described above (Klein et al. (1999) J Biol Chem 274:34795; Tseng et al. (2005) Nat Cell Biol 7:601). WT-1 cells were treated with FGF6 in growth media (DMEM+10% FBS), a vehicle control (“control” or “C” referred to in FIGS. 3A-D), or induction media (“induction” or “I” referred to in FIGS. 3A-D) as described above for seven days. Following the treatment, cells were examined for the color of the culture media in combination with oil Red O staining, expression of adipogenic markers, expression of brown fat markers, immunofluorescent staining of cells with UCP1 and DPAI, and Western blot analysis to determine the presence of UCP1 and β-tubulin. The results are described in FIGS. 3A to 3D.\nUCP1 mRNA expression in brown adipocyte cells was determined at FGF6 concentrations ranging from 0 to 300 ng/ml in the absence of induction cocktail.\nIn order to determine the length of time necessary to induce UCP1 expression upon exposure to of cells to FGF6, an experiment was performed whereby FGF6 was administered to brown preadipocytes at a concentration of 200 ng/ml and UCP1 expression was determined. FGF21 and a control were also used in the time course experiment. FGF21, a member of the endocrine FGF ligands that has been implicated in the browning of white fat (Fisher F. M. et al., Genes Dev. 26:271-281, 2012). […] FGF6 could acutely induce a significant increase of UCP1 expression as early as 4 hours after a 200 ng/ml dose, as described in FIG. 4B. At 24 hours, the fold-induction of UCP1 mRNA by FGF6 reached 700-fold higher than the untreated cells, as described in FIG. 4B.\nTo assess FGF6's role in the regulation of mitochondrial activity, FGF6 was stably expressed in WT-1 brown preadipocytes and 3T3-F442A white preadipocytes. Stable cells were generated by viral infection followed by drug selection.\nFGF2, FGF6 and FGF9 were used at a dosage of 50 ng/mL, 100 ng/mL, 200 ng/mL or 300 ng/mL. FGF21 was used at the dosage of 50 ng/ml and 500 ng/mL. The concentration of BMP7 was 3.3 nM. RNA was isolated and UCP1 and PPARγ expression levels were evaluated by quantitative reverse transcription polymerase chain reaction (Q-RT-PCR) analysis after 24 hours (i.e., 1 day) (FIG. 14A), 2 days (FIG. 14B), 5 days (FIG. 14C) and 7 days (FIG. 14D) of treatment. All experiments were performed triplicate and the data are presented as mean+/−SEM.\nFGF2, FGF6 and FGF9 were used at a dosage of 200 ng/mL. FGF21 was used at a dosage of 500 ng/mL. The concentration of BMP7 was 3.3 nM. mRNA was isolated and UCP1 and PPARγ expression levels were evaluated by quantitative reverse transcription polymerase chain reaction (Q-RT-PCR) analysis after 24 hours (i.e., 1 day), 2 days, 5 days and 7 days of treatment (FIG. 15). […]"}, "PTGS2 (COX2)": {"tested_on": "PTGS2 (COX2)", "test": "PTGS2 mRNA / COX2 protein expression in WT-1 brown preadipocytes", "format": "cell-based, murine", "protocol": "as §1\nCells were harvested in lysis buffer (50 mM HEPES, 137 mM NaCl, 1 mM MgCl2, 1 mM CaCl2, 10 mM Na2P2O7, 10 mM NaF, 2 mM EDTA, 10% glycerol, 1% Igepal CA-630, 2 mM vanadate, 10 μg/ml of leupeptin, 10 μg/ml of aprotinin, 2 mM phenylmethylsulfonyl fluoride; pH 7.4). After lysis, lysates were clarified by centrifugation at 12,000×g for 20 min at 4° C., the amount of protein in the supernatants was determined by the Bradford Protein Assay (Bio-Rad Laboratories, Hercules, Calif.). Proteins were directly solubilized in Laemmli sample buffer. Equal amounts of lysates were separated by sodium dodecyl sulfate-polyacrylamide gel electrophoresis and transferred to Immobolin-P membranes. […] Specifically bound primary antibodies were detected with peroxidase-coupled secondary antibody and enhanced chemiluminescence (ECL, Amersham Biosciences, Piscataway, N.J.).\nTo determine if FGF4, FGF5, FGF6, FGF10, FGF16, FGF17, FGF18 or FGF20 induced either UCP1 mRNA or PTGS2 mRNA expression, murine brown preadipocyte WT-1 cells (Tseng et al., Nat. Cell. Biol. (2005) 7(6):601-611) were grown in growth media (DMEM-high glucose+10% FBS) supplemented with FGF4, FGF5, FGF6, FGF10, FGF16, FGF17, FGF18, FGF20 or buffer (control) in combination with insulin (20 nM) and triidothyronine (T3, 1 nM) for three days. All FGFs were used at a dosage of 200 ng/mL. mRNA was isolated and UCP1 and PTGS2 gene expression levels were evaluated by quantitative reverse transcription polymerase chain reaction (Q-RT-PCR) analysis. […]\nTo test the role of specific prostaglandins (PGs) in activating UCP1 expression, WT-1 brown adipocytes were pretreated with PGE2, PGI2 and FGF6 for 24 hours. mRNA expression levels of UCP1, PTGS2, LDHA, PDK1 and PKM2 were then measured."}, "FGF6 mRNA": {"tested_on": "FGF6 mRNA", "test": "FGF6 mRNA expression in adipose tissue of mice treated with β3-adrenergic agonist", "format": "in vivo, C57BL/6 mice", "conditions": "intraperitoneal 1 mg/kg body weight for 10 days; relative to PBS control", "protocol": "as §1\nCL316,243 was administered by intraperitoneal injection to the mice at a dose of 1 mg/kg body weight for 10 days."}, "PGE2-EP4 receptor": {"target": "T1, PGE2-EP4 receptor (Mus musculus, UniProt P32240)", "T1 construct": "endogenous in cells; host or cells: WT-1 murine brown preadipocytes", "T1 sequence (P32240 whole entry)": "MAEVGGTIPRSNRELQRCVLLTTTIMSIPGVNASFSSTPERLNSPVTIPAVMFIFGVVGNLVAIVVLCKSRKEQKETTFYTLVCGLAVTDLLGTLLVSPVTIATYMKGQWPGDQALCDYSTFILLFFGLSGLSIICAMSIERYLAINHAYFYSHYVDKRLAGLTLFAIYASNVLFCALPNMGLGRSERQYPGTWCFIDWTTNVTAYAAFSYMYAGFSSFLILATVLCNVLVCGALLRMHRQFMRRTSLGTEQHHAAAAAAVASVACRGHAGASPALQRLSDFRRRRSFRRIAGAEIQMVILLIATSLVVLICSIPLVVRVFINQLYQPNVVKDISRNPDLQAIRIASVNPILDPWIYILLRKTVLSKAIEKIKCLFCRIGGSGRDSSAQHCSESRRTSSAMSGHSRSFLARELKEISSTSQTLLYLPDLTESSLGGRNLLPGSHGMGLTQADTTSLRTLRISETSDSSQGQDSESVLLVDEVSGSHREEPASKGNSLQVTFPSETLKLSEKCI", "test": "PGE2-EP4 receptor inhibitor effect on FGF6-induced UCP1 mRNA in WT-1 cells", "format": "cell-based, murine", "conditions": "10 uM, with FGF6 24 hours", "protocol": "The role of the PGE2-EP4 receptor was also examined. WT-1 brown adipocytes were pretreated with AH-23848 (Sigma Aldrich), a calcium salt which is an inhibitor of the PGE2-EP4 receptor. Following AH-23848 (“AH”) treatment of the WT-1 cells at concentrations of 0 uM and 10 uM, the cells were treated with FGF6 alone in growth media (DMEM+10% FBS), AH alone, or the combination of FGF6 and AH for 24 hours. UCP1 mRNA expression for each group was then determined."}, "[1]": {"tested_on": "PPARγ, aP2, FAS, PRDM16, PGC1α, CIDEA", "test": "Adipogenic and brown fat marker mRNA expression in WT-1 brown preadipocytes", "format": "cell-based, murine", "protocol": "as §1, with “QPCR. […]” for “QPCR.”\nFGF2, FGF6 and FGF9 were used at a dosage of 50 ng/mL, 100 ng/mL, 200 ng/mL or 300 ng/mL. […] RNA was isolated and UCP1 and PPARγ expression levels were evaluated by quantitative reverse transcription polymerase chain reaction (Q-RT-PCR) analysis after 24 hours (i.e., 1 day) (FIG. 14A), 2 days (FIG. 14B), 5 days (FIG. 14C) and 7 days (FIG. 14D) of treatment. […]"}, "UCP1 protein": {"tested_on": "UCP1 protein", "test": "UCP1 protein in WT-1 cells (immunofluorescent staining, Western blot)", "format": "cell-based, murine", "conditions": "WT-1, 200 ng/mL with insulin 20 nM and T3 1 nM; relative to control cells", "protocol": "Cells were harvested in lysis buffer (50 mM HEPES, 137 mM NaCl, 1 mM MgCl2, 1 mM CaCl2, 10 mM Na2P2O7, 10 mM NaF, 2 mM EDTA, 10% glycerol, 1% Igepal CA-630, 2 mM vanadate, 10 μg/ml of leupeptin, 10 μg/ml of aprotinin, 2 mM phenylmethylsulfonyl fluoride; pH 7.4). After lysis, lysates were clarified by centrifugation at 12,000×g for 20 min at 4° C., the amount of protein in the supernatants was determined by the Bradford Protein Assay (Bio-Rad Laboratories, Hercules, Calif.). Proteins were directly solubilized in Laemmli sample buffer. Equal amounts of lysates were separated by sodium dodecyl sulfate-polyacrylamide gel electrophoresis and transferred to Immobolin-P membranes. Membranes were blocked overnight at 4° C. and incubated with the indicated antibody for 2 hours at room temperature. Specifically bound primary antibodies were detected with peroxidase-coupled secondary antibody and enhanced chemiluminescence (ECL, Amersham Biosciences, Piscataway, N.J.).\nThe effect of FGF6 on differentiation of WT-1 murine brown preadipocytes was also examined. WT-1 cells can be induced to undergo brown adipocyte differentiation, characterized by lipid accumulation and expression of adipogenic and brown fat markers, as described above (Klein et al. (1999) J Biol Chem 274:34795; Tseng et al. (2005) Nat Cell Biol 7:601). […]"}, "UCP1 and PTGS2": {"tested_on": "UCP1 and PTGS2", "test": "UCP1 and PTGS2 mRNA in WT-1 cells undergoing adipocyte differentiation", "format": "cell-based, murine", "conditions": "after induction media; 200 ng/mL FGF or 3.3 nM BMP7, 2 days", "protocol": "In a separate experiment investigating the ability of FGF proteins to induce UCP1 expression in cells undergoing adipocyte differentiation, WT-1 preadipocyte cells were differentiated by culturing in growth media supplemented with insulin (20 nM) and triiodothyronine (T3, 1 nM) for 3 days, followed by incubation in an induction media (growth medium supplemented 20 nM insulin, 1 nM T3, 0.5 mM isobutyl-methylxanthine, 5 μM dexamethasone) for 2 days. The cell were then exposed to BMP7 (3.3 nM) or 200 ng/mL of FGF2, FGF6 or, FGF9 in growth media supplemented with insulin (20 nM) and triodothyronine (T3, 1 nM) for 2 additional days. Cells were harvested and UCP1 and PTGS2 mRNA expression levels were determined according to the quantitative RT-PCR assay described above. Experiments were performed in triplicate and the data presented as mean+/−SEM."}, "[2]": {"conditions": "50, 100 or 300 ng/mL with insulin and T3, three days, FGF1 effect at 300 ng/ml"}, "[3]": {"conditions": "200 ng/mL with insulin and T3, three days"}}, "note": "Entries after “also recorded” stand apart in the source; their conditions may differ.", "data": [{"compound": "FGF1: fibroblast growth factor 1, recombinant human, R&D Systems", "values": [{"measurement": "UCP1 mRNA expression", "setting": "UCP1; [2]", "value": "induced expression"}, {"measurement": "PTGS2 mRNA expression", "setting": "PTGS2 (COX2); [2]", "value": "induced expression"}]}, {"compound": "C[C@H](Cc1ccc2c(c1)OC(C(=O)[O-])(C(=O)[O-])O2)NC[C@H](O)c1cccc(Cl)c1.[Na+].[Na+]", "note": "[CL316,243]", "values": [{"measurement": "FGF6 mRNA expression levels in interscapular BAT and subcutaneous WAT", "setting": "FGF6 mRNA", "value": "increased"}]}, {"compound": "FGF16: fibroblast growth factor 16", "values": [{"measurement": "expression of UCP1", "setting": "UCP1; [3]", "value": "minimal expression"}]}, {"compound": "O=C(O)CC/C=C\\CC[C@H]1[C@H](N2CCOCC2)C(=O)C[C@H]1OCc1ccc(-c2ccccc2)cc1", "note": "[AH-23848]", "values": [{"measurement": "effect of FGF6 on UCP1 expression in the presence of inhibitor", "setting": "PGE2-EP4 receptor", "value": "reduced; also recorded: suppression"}]}, {"compound": "FGF20: fibroblast growth factor 20", "values": [{"measurement": "PTGS2 mRNA expression relative to the control", "setting": "PTGS2 (COX2); [3]", "value": "increased"}]}, {"compound": "FGF2: fibroblast growth factor 2, recombinant human, R&D Systems", "values": [{"measurement": "UCP1 expression level", "setting": "UCP1; 50-300 ng/mL with insulin and T3, 1, 2, 5 and 7 days, dose-responsive", "value": "very high levels of UCP1"}, {"measurement": "UCP1 expression level, time course", "setting": "UCP1; FGF2, FGF6, FGF9 200 ng/mL, FGF21 500 ng/mL, with insulin and T3, 1, 2, 5, 7 days", "value": "very high levels of UCP1"}, {"measurement": "PPARγ expression level, time course", "setting": "[1]; 200 ng/mL with insulin and T3, 1, 2, 5, 7 days", "value": "very low levels of PPARγ"}, {"measurement": "PPARγ expression level", "setting": "[1]; 50-300 ng/mL with insulin and T3, 1, 2, 5 and 7 days", "value": "very low levels of PPARγ"}, {"measurement": "UCP1 protein, immunofluorescent staining", "setting": "UCP1 protein", "value": "significant levels of staining"}, {"measurement": "PTGS2 mRNA expression in cells undergoing adipocyte differentiation", "setting": "UCP1 and PTGS2", "value": "able to induce"}, {"measurement": "UCP1 mRNA expression in cells undergoing adipocyte differentiation", "setting": "UCP1 and PTGS2", "value": "able to induce"}]}]}
